PubChem BioAssay (NCI)
Values joined by “and” are separate entries in the source; they are usually repeats but may differ in a detail not shown here. Equal values may be shown once.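 Dose response: 5 concentrations. Exposure: 48 h. Format: 96-well plates. Endpoint: linear interpolation; highest concentration if not reached. At the GI50, growth is halved. TGI denotes the concentration required for complete inhibition of growth.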

Experiments:
Assay in all cases: NCI anticancer screen, dose series, 48 h
MCF7 breast = tested on: MCF7 breast
OVCAR-8 ovarian = tested on: OVCAR-8 ovarian
MDA-MB-435 = tested on: MDA-MB-435
NCI-H522 lung = tested on: NCI-H522 lung
COLO 205 colon = tested on: COLO 205 colon
A498 renal = tested on: A498 renal
ACHN renal = tested on: ACHN renal
786-0 renal = tested on: 786-0 renal
SK-MEL-2 melanoma = tested on: SK-MEL-2 melanoma
SNB-75 CNS = tested on: SNB-75 CNS

SMILES | GI50 (MCF7 breast) [µM] | TGI (MCF7 breast) | GI50 (OVCAR-8 ovarian) [µM] | TGI (OVCAR-8 ovarian) | GI50 (MDA-MB-435) [µM] | TGI (MDA-MB-435) | GI50 (NCI-H522 lung) [µM] | TGI (NCI-H522 lung) | GI50 (COLO 205 colon) [µM] | TGI (COLO 205 colon) | GI50 (A498 renal) [µM] | TGI (A498 renal) | GI50 (ACHN renal) [µM] | TGI (ACHN renal) | GI50 (786-0 renal) [µM] | TGI (786-0 renal) | GI50 (SK-MEL-2 melanoma) [µM] | TGI (SK-MEL-2 melanoma) [µM] | GI50 (SNB-75 CNS) [µM] | TGI (SNB-75 CNS) [µM]
CC[C@@]12C=CCN3CC[C@]4(c5cc(NC(=O)COc6cc(OCC(=O)Nc7cc8c(cc7OC)N(C)[C@H]7[C@@](O)(C(=O)OC)[C@H](OC(C)=O)[C@]9(CC)C=CCN%10CC[C@]87[C@@H]%109)cc7oc(-c8ccccc8)cc(=O)c67)c(OC)cc5N(C)[C@@H]4[C@](O)(C(=O)OC)[C@H]1OC(C)=O)[C@H]32 | 3.25 | 21.7 µM | 2.87 | > 100 µM | 17.7 | > 100 µM | 2.15 | 6.03 µM | 3.88 | 27.3 µM | 7.6 | 22.3 µM | > 100 | > 100 µM | 3.58 | 14.9 µM | 43.5 | > 100 | 3.41 | > 100
Clc1ccc2ns[s+]c2c1 |  | > 100 µM |  | > 100 µM |  | > 100 µM |  | > 100 µM |  | > 44.9 µM |  | > 100 µM |  | > 94.3 µM |  | > 100 µM |  | > 82.5 |  | > 100
CNCCNc1nc2ccccc2c2c(=O)c3cc(OC)ccc3sc12 | 1.54 | 3.1 µM | 1.91 | 4.39 µM | 1.72 | 3.13 µM | 1.73 | 3.56 µM | 1.64 | 3.34 µM | 2.12 | 6.8 µM | 1.58 | 2.93 µM | 1.7 | 3.18 µM | 1.94 | 3.83 | 1.28 | 2.58
COC(=O)[C@H]1[C@H]2C[C@@H]3c4[nH]c5cc(OC)ccc5c4CCN3C[C@H]2C[C@@H](OC(=O)/C=C/c2cc(OC)c(OC)c(OC)c2)[C@@H]1OC | 4.75 | 23 µM | 4.74 | 50.4 µM | 3.22 | 19.4 µM | 10.4 | 27 µM | 3.69 | 14.8 µM | 4.23 | 18.6 µM | 4.05 | 21.5 µM | 9.86 | 26.3 µM | 5.73 | 19.8 | 5.19 | 20.2
COc1ccc([C@@H](O)c2cc(-c3ncnc4cc(N5CCOCC5)ccc34)c(F)cc2Cl)nn1 | 0.592 | 15.7 µM | 5.92 | 78.4 µM | 4.18 | 37.4 µM | 3.31 | 22.3 µM | 2.85 | 16.5 µM | 0.228 | 0.943 µM | 2.53 | 91 µM | 1.1 | 25.3 µM | 7.37 | 25.3 | 0.371 | 11.4
CC(=O)c1cccc(-c2cccc(-c3ccn(CCN4CCOCC4)n3)c2)c1 | > 20 | > 20 µM | > 20 | > 20 µM | > 20 | > 20 µM | > 20 | > 20 µM | > 20 | > 20 µM | 14.5 | > 20 µM | > 20 | > 20 µM | > 20 | > 20 µM | > 20 | > 20 | > 20 | > 20
Nc1cc2[nH]cnc2c(=O)[nH]1 |  | > 300 µM |  | > 300 µM |  | > 300 µM |  | > 215 µM |  | 228 µM |  | 298 µM |  | > 300 µM |  | > 300 µM |  | 125 |  | > 300
CCCCCCNC(=O)Oc1ccc(/C(=C(/C)Cc2ccc(OC)cc2)c2ccc(OCCN(C)C)cc2)cc1 | 1.29 | 6.98 µM | 5.32 | 11.1 µM | 4.62 | 9.17 µM | 5.61 | 10.6 µM | 4.71 | 9.79 µM | 5.34 | 9.92 µM | 5.43 | 9.99 µM | 4.97 | 9.49 µM | 5.91 | 11 | 3.99 | 8.53
COC(=O)[C@]1(C)CCC[C@@]2(C)[C@@H]3C[C@@H]4[C@H]5C[C@@]3(CC[C@@H]21)C[C@@]45C |  | 30.3 µM |  | 30.6 µM |  | 38.7 µM |  | 32.9 µM |  | 45.8 µM |  | 34.1 µM |  | 29.2 µM |  | 29.6 µM |  | 30.9 |  | 31.5
CCOC(=O)Nc1nc2cc(OCC)ccc2s1 | 5.01 | > 100 µM | > 76.1 | > 100 µM | 0.923 | 5.15 µM | 6.05 | > 100 µM | 7.84 | > 100 µM | 6.46 | > 100 µM | > 100 | > 100 µM | > 100 | > 100 µM | 16.3 | > 100 | 53.8 | > 100
CCCCCCNC(=O)n1cc(F)c(=O)[nH]c1=O | 0.65 | 16.8 µM | 3.29 | 24.1 µM | 1.21 | 24.2 µM | 10.7 | 25 µM | 2.09 | 18.4 µM | 18 | > 100 µM | 4.86 | 23 µM | 10.6 | 23.4 µM | 12 | 35.2 | 7.51 | 43
CC(=O)c1cc(-c2ccccc2N)n(-c2ccc3c(c2)OCO3)c1C | 0.32 | > 100 µM | 0.156 | > 100 µM | 0.163 | 0.434 µM | 0.139 | 5.49 µM | 0.328 | 1.32 µM | 0.195 | 0.808 µM | 0.398 | > 100 µM | 0.388 | > 100 µM | 0.31 |  | 0.255 | > 93.9
COc1cc2c(c(OC)c1OC)-c1ccc(O)c(=O)cc1[C@@H](NC(C)=O)CC2 | 4.37 | > 100 µM and 63.5 µM | 3.77 | > 100 µM and 35.7 µM | 14.3 | > 100 µM and 47.4 µM | 4.64 | 90.8 µM and 36.4 µM | 4.1 | > 100 µM and 35.4 µM | 15 | > 100 µM and 44.1 µM | 5.61 | > 100 µM and 44.5 µM | 12.3 | 62 µM and 92.1 µM | 20 | > 100 | 16.3 | > 100
